Experimental data from ChEMBL document CHEMBL1136143, “Synthesis and activity of novel benzoxazole derivatives of mannopeptimycin glycopeptide antibiotics” (2003).
Converted amounts (≈) assume the structure as drawn.

Assays:
[1] = system: Enterococcus sp.; assay: In vitro minimum inhibitory concentration against Enterococcus species (11 strains, including VRE); assay type: functional
[2] = system: Enterococcus faecium; assay: In vitro minimum inhibitory concentration against vancomycin-resistant Enterococcus faecium (GC 2243); assay type: functional
[3] = system: Enterococcus faecium; assay: In vitro minimum inhibitory concentration against vancomycin-resistant Enterococcus faecium (GC 4558); assay type: functional
[4] = system: Enterococcus faecium; assay: In vitro minimum inhibitory concentration against vancomycin-susceptible Enterococcus faecium (GC 4556); assay type: functional
[5] = system: Enterococcus faecium; assay: In vitro minimum inhibitory concentration against vancomycin-susceptible Enterococcus faecium (GC 4557); assay type: functional
[6] = system: Enterococcus faecalis; assay: In vitro minimum inhibitory concentration against vancomycin-susceptible Enterococcus faecalis (GC 4555); assay type: functional
[7] = system: Enterococcus faecalis; assay: In vitro minimum inhibitory concentration against vancomycin-resistant Enterococcus faecalis (GC 2242); assay type: functional
[8] = system: Enterococcus faecalis; assay: In vitro minimum inhibitory concentration against vancomycin-resistant Enterococcus faecalis (GC 3059); assay type: functional
[9] = system: Enterococcus faecalis; assay: In vitro minimum inhibitory concentration against vancomycin-resistant Enterococcus faecalis (GC 6189); assay type: functional
[10] = system: Enterococcus faecalis; assay: In vitro minimum inhibitory concentration against vancomycin-susceptible Enterococcus faecalis (GC 2691); assay type: functional
[11] = system: Enterococcus faecalis; assay: In vitro minimum inhibitory concentration against vancomycin-susceptible Enterococcus faecalis (GC 4552); assay type: functional
[12] = system: Enterococcus faecalis; assay: In vitro minimum inhibitory concentration against vancomycin-susceptible Enterococcus faecalis (GC 4553); assay type: functional
[13] = system: Micrococcus luteus; assay: In vitro minimum inhibitory concentration against Micrococcus lutea (GC 4562); assay type: functional
[14] = system: Staphylococcus aureus; assay: In vitro minimum inhibitory concentration against Staphylococcus aureus (10strains, including MRSA); assay type: functional
[15] = system: Staphylococcus aureus; assay: In vitro minimum inhibitory concentration against Methicillin-resistant Staphylococcus aureus (GC 1131); assay type: functional
[16] = system: Staphylococcus aureus; assay: In vitro minimum inhibitory concentration against Methicillin-resistant Staphylococcus aureus (GC 2216); assay type: functional
[17] = system: Staphylococcus aureus; assay: In vitro minimum inhibitory concentration against Methicillin-resistant Staphylococcus aureus (GC 4542); assay type: functional
[18] = system: Staphylococcus aureus; assay: In vitro minimum inhibitory concentration against Methicillin-resistant Staphylococcus aureus (GC 4543); assay type: functional
[19] = system: Staphylococcus aureus; assay: In vitro minimum inhibitory concentration against Methicillin-resistant Staphylococcus aureus(GC 4541); assay type: functional
[20] = system: Staphylococcus aureus; assay: In vitro minimum inhibitory concentration against Methicillin-resistant Staphylococcus aureus(GC 4545); assay type: functional
[21] = system: Staphylococcus aureus; assay: In vitro minimum inhibitory concentration against glycopeptide tntermediate Staphylococcus aureus (GC 3051); assay type: functional
[22] = system: Staphylococcus aureus; assay: In vitro minimum inhibitory concentration against glycopeptide tntermediate Staphylococcus aureus (GC 3066); assay type: functional
[23] = system: Staphylococcus haemolyticus; assay: In vitro minimum inhibitory concentration against methicillin-resistant Coagulase-negative Staphylococci (MRCNS) (GC 4546)); assay type: functional
[24] = system: Staphylococcus haemolyticus; assay: In vitro minimum inhibitory concentration against methicillin-resistant Coagulase-negative Staphylococci (MRCNS) (GC 4547)); assay type: functional
[25] = system: Streptococcus pneumoniae; assay: In vitro minimum inhibitory concentration against Penicillin resistant Streptococcus pneumoniae (GC 1894); assay type: functional
[26] = system: Streptococcus pneumoniae; assay: In vitro minimum inhibitory concentration against Penicillin susceptible Streptococcus pneumoniae (GC 6242); assay type: functional
[27] = system: Staphylococcus haemolyticus; assay: In vitro minimum inhibitory concentration against methicillin-susceptible Coagulase-negative Staphylococci (MSCNS) (GC 4549)); assay type: functional
[28] = system: Staphylococcus haemolyticus; assay: In vitro minimum inhibitory concentration against methicillin-susceptible Coagulase-negative Staphylococci (MSCNS) (GC 4551); assay type: functional
[29] = system: Staphylococcus haemolyticus; assay: In vitro minimum inhibitory concentration against methicillin-susceptible Coagulase-negative Staphylococci (MSCNS) (GC 6257); assay type: functional
[30] = system: Streptococcus; assay: In vitro minimum inhibitory concentration against Streptococcus Species (5 strains, including PRSP); assay type: functional
[31] = system: Bacillus cereus; assay: In vitro minimum inhibitory concentration against Bacillus cereus (GC 4561) assay organism; assay type: functional
[32] = system: Staphylococcus haemolyticus; assay: In vitro minimum inhibitory concentration against methicillin-resistant Coagulase-negative Staphylococci (MRCNS) (GC 4548)); assay type: functional
[33] = system: Enterococcus faecalis; assay: In vitro minimum inhibitory concentration against vancomycin-susceptible Enterococcus faecalis (GC 4554); assay type: functional
[34] = system: Staphylococcus aureus; assay: In vitro minimum inhibitory concentration against Methicillin-resistant Staphylococcus aureus(GC 4544); assay type: functional
[35] = system: Streptococcus pyogenes; assay: In vitro minimum inhibitory concentration against Streptococcus pyogenes (GC 4563)
[36] = system: Streptococcus agalactiae; assay: In vitro minimum inhibitory concentration against Streptococcus agalactiae (GC4564)
[37] = system: Streptococcus pneumoniae; assay: In vitro minimum inhibitory concentration against Penicillin susceptible Streptococcus pneumoniae (GC 4565)
[38] = system: Streptococcus agalactiae; assay: In vitro minimum inhibitory concentration against Streptococcus agalactiae (GC4564); assay type: functional
[39] = system: Staphylococcus aureus; assay: In vitro minimum inhibitory concentration against Methicillin-susceptible Staphylococcus aureus (GC 2216); assay type: functional
[40] = system: Staphylococcus aureus; assay: In vitro minimum inhibitory concentration against Methicillin-susceptible Staphylococcus aureus (GC 4543); assay type: functional
[41] = system: Staphylococcus aureus; assay: In vitro minimum inhibitory concentration against Methicillin-susceptible Staphylococcus aureus(GC 4544); assay type: functional
[42] = system: Staphylococcus haemolyticus; assay: In vitro minimum inhibitory concentration against methicillin-resistant Coagulase-negative Staphylococci (MRCNS) (GC 4546); assay type: functional
[43] = system: Staphylococcus haemolyticus; assay: In vitro minimum inhibitory concentration against methicillin-resistant Coagulase-negative Staphylococci (MRCNS) (GC 4547); assay type: functional
[44] = system: Streptococcus pneumoniae; assay: In vitro minimum inhibitory concentration against Penicillin susceptible Streptococcus pneumoniae (GC 4565); assay type: functional
[45] = system: Staphylococcus haemolyticus; assay: In vitro minimum inhibitory concentration against methicillin-resistant Coagulase-negative Staphylococci (MRCNS) (GC 4548); assay type: functional
[46] = system: Streptococcus pyogenes; assay: In vitro minimum inhibitory concentration against Streptococcus pyogenes (GC 4563); assay type: functional
[47] = system: Staphylococcus haemolyticus; assay: In vitro minimum inhibitory concentration against methicillin-susceptible Coagulase-negative Staphylococci (MSCNS) (GC 4549); assay type: functional
[48] = system: Staphylococcus aureus; assay: In vitro minimum inhibitory concentration against Methicillin-susceptible Staphylococcus aureus(GC 4545); assay type: functional
[49] = system: Staphylococcus haemolyticus; assay: In vitro minimum inhibitory concentration against methicillin-resistant Coagulase-negative Staphylococci (MRCNS) hemolyticu (GC 4546)); assay type: functional
[50] = system: Streptococcus agalactiae; assay: In vitro minimum inhibitory concentration against Streptococcus agalactiae (GC4564); remark: listed apart in the source
[51] = system: Enterococcus faecium; assay: In vitro minimum inhibitory concentration against vancomycin-resistant Enterococcus faecium (GC 2243)
[52] = system: Enterococcus faecium; assay: In vitro minimum inhibitory concentration against vancomycin-resistant Enterococcus faecium (GC 4558)
[53] = system: Enterococcus faecium; assay: In vitro minimum inhibitory concentration against vancomycin-susceptible Enterococcus faecium (GC 4556)
[54] = system: Enterococcus faecium; assay: In vitro minimum inhibitory concentration against vancomycin-susceptible Enterococcus faecium (GC 4557)
[55] = system: Streptococcus pneumoniae; assay: In vitro minimum inhibitory concentration against Penicillin susceptible Streptococcus pneumoniae (GC 4565); remark: listed apart in the source

Row | SMILES | MIC [1] [µg/mL] | MIC [6] [µg/mL] | MIC [7] [µg/mL] | MIC [8] [µg/mL] | MIC [9] [µg/mL] | MIC [10] [µg/mL] | MIC [11] [µg/mL] | MIC [12] [µg/mL] | MIC [13] [µg/mL] | MIC [14] [µg/mL] | MIC [15] [µg/mL] | MIC [17] [µg/mL] | MIC [19] [µg/mL] | MIC [21] [µg/mL] | MIC [22] [µg/mL] | MIC [25] [µg/mL] | MIC [26] [µg/mL] | MIC [28] [µg/mL] | MIC [29] [µg/mL] | MIC [30] [µg/mL] | further results
1 | C[C@@H](c1ccccc1)[C@@H]1NC(=O)CNC(=O)[C@H](CO)NC(=O)[C@@H]([C@@H](O)[C@@H]2CN=C(N)N2[C@H]2O[C@H](CO)[C@@H](O)[C@H](O)[C@@H]2O)NC(=O)[C@H]([C@H](O)[C@@H]2CN=C(N)N2)NC(=O)[C@@H](Cc2ccc3nc(-c4cccc(F)c4)oc3c2)NC1=O | 16 (≈ 14.7 µM) | 64 (≈ 58.7 µM) | 32 (≈ 29.4 µM) | 64 (≈ 58.7 µM) | 32 (≈ 29.4 µM) | 32 (≈ 29.4 µM) | 64 (≈ 58.7 µM) | 16 (≈ 14.7 µM) | 2 (≈ 1.83 µM) | 8 (≈ 7.34 µM) | 8 (≈ 7.34 µM) | 8 (≈ 7.34 µM) | 16 (≈ 14.7 µM) | 16 (≈ 14.7 µM) | 16 (≈ 14.7 µM) | 16 (≈ 14.7 µM) | 8 (≈ 7.34 µM) | 8 (≈ 7.34 µM) | 4 (≈ 3.67 µM) | 4 (≈ 3.67 µM) | MIC [2]: 32 µg/mL (≈ 29.4 µM); MIC [3]: 16 µg/mL (≈ 14.7 µM); MIC [4]: 64 µg/mL (≈ 58.7 µM); MIC [5]: 8 µg/mL (≈ 7.34 µM); MIC [16]: 8 µg/mL (≈ 7.34 µM); MIC [18]: 8 µg/mL (≈ 7.34 µM); MIC [20]: 8 µg/mL (≈ 7.34 µM); MIC [23]: 4 µg/mL (≈ 3.67 µM); MIC [24]: 8 µg/mL (≈ 7.34 µM); MIC [27]: 16 µg/mL (≈ 14.7 µM); MIC [31]: 64 µg/mL (≈ 58.7 µM); MIC [32]: 4 µg/mL (≈ 3.67 µM); MIC [33]: 64 µg/mL (≈ 58.7 µM); MIC [34]: 8 µg/mL (≈ 7.34 µM); MIC [35]: 4 µg/mL (≈ 3.67 µM); MIC [36]: 8 µg/mL (≈ 7.34 µM); MIC [37]: 16 µg/mL (≈ 14.7 µM)
2 | CCN1CCN(C(=O)N[C@@H](C(=O)N[C@@H]2C(=O)N3[C@@H]2SC(C)(C)[C@@H]3C(=O)O)c2ccccc2)C(=O)C1=O [PIPERACILLIN] | 0.25 (≈ 0.483 µM) | 1 (≈ 1.93 µM) | 2 (≈ 3.86 µM) | 2 (≈ 3.86 µM) | 2 (≈ 3.86 µM) | 2 (≈ 3.86 µM) | 2 (≈ 3.86 µM) | > 64 | < 0.06 | 0.5 (≈ 0.966 µM) | > 64 | 64 (≈ 124 µM) | > 64 | 64 (≈ 124 µM) | 0.5 (≈ 0.966 µM) | 2 (≈ 3.86 µM) | < 0.06 | 4 (≈ 7.73 µM) | 4 (≈ 7.73 µM) | < 0.12 | MIC [2]: 64 µg/mL (≈ 124 µM); MIC [3]: > 64 µg/mL; MIC [4]: 1 µg/mL (≈ 1.93 µM); MIC [5]: 0.12 µg/mL (≈ 0.232 µM); MIC [38]: 0.12 µg/mL (≈ 0.232 µM); MIC [39]: 4 µg/mL (≈ 7.73 µM); MIC [40]: 1 µg/mL (≈ 1.93 µM); MIC [41]: 4 µg/mL (≈ 7.73 µM); MIC [42]: > 64 µg/mL; MIC [43]: > 64 µg/mL; MIC [44]: < 6 ng/mL; MIC [45]: 16 µg/mL (≈ 30.9 µM); MIC [46]: < 0.006 µg/mL; MIC [47]: 32 µg/mL (≈ 61.8 µM); MIC [31]: 1 µg/mL (≈ 1.93 µM); MIC [48]: 8 µg/mL (≈ 15.5 µM); MIC [33]: 1 µg/mL (≈ 1.93 µM)
3 | C[C@@H](c1ccccc1)[C@@H]1NC(=O)CNC(=O)[C@H](CO)NC(=O)[C@@H]([C@@H](O)[C@@H]2CN=C(N)N2[C@H]2O[C@H](CO)[C@@H](O)[C@H](O)[C@@H]2O)NC(=O)[C@H]([C@H](O)[C@@H]2CN=C(N)N2)NC(=O)[C@@H](Cc2ccc3nc(-c4ccc(N(C)C)cc4)oc3c2)NC1=O | 8 (≈ 7.17 µM) | 32 (≈ 28.7 µM) | 32 (≈ 28.7 µM) | 64 (≈ 57.4 µM) | 32 (≈ 28.7 µM) | 32 (≈ 28.7 µM) | 64 (≈ 57.4 µM) | 16 (≈ 14.3 µM) | 2 (≈ 1.79 µM) | 8 (≈ 7.17 µM) | 8 (≈ 7.17 µM) | 8 (≈ 7.17 µM) | 8 (≈ 7.17 µM) | 8 (≈ 7.17 µM) | 8 (≈ 7.17 µM) | 32 (≈ 28.7 µM) | 32 (≈ 28.7 µM) | 8 (≈ 7.17 µM) | 4 (≈ 3.59 µM) | 16 (≈ 14.3 µM) | MIC [39]: 8 µg/mL (≈ 7.17 µM); MIC [40]: 8 µg/mL (≈ 7.17 µM); MIC [41]: 8 µg/mL (≈ 7.17 µM); MIC [24]: 4 µg/mL (≈ 3.59 µM); MIC [46]: 16 µg/mL (≈ 14.3 µM); MIC [49]: 4 µg/mL (≈ 3.59 µM); MIC [27]: 2 µg/mL (≈ 1.79 µM); MIC [31]: 32 µg/mL (≈ 28.7 µM); MIC [32]: 4 µg/mL (≈ 3.59 µM); MIC [48]: 8 µg/mL (≈ 7.17 µM); MIC [33]: 32 µg/mL (≈ 28.7 µM); MIC [50]: 32 µg/mL (≈ 28.7 µM); MIC [51]: 16 µg/mL (≈ 14.3 µM); MIC [52]: 16 µg/mL (≈ 14.3 µM); MIC [53]: 64 µg/mL (≈ 57.4 µM); MIC [54]: 8 µg/mL (≈ 7.17 µM); MIC [55]: 32 µg/mL (≈ 28.7 µM)
